Assays:
[1] = Compound exposure in wild-type mice (brain and blood levels); format: in vivo, C57BL/6J male mice; details: Table 9, mice, i.p., one hour after administration; for Kp at 1 h: male, C57BL/6J, mouse, brain (cerebellum) / blood, ip, read-out: Brain:blood ratio
Experimental: (§1) Compound administration and brain tissue collection. Wild-type C57BL/6J male mice were obtained from Jackson laboratories (Bar Harbor, ME). The acute, single-dose effects of CaV1.2 activators of the present disclosure were evaluated in male eight-week old mice (n=6 mice per compound). Each compound was dissolved in 10% PEG300, 10% Solutol, 10% Cremophore EL, and 70% Phosphate Buffered Saline and administered intraperitoneal (i.p.) at a concentration of 1 mg/kg up to 30 mg/kg depending on the compound. Animals were euthanized one hour after compound administration via exsanguination under deep anesthesia. Blood was collected in EDTA tubes for downstream analysis of drug levels. Brains were rapidly removed from the skull, and the cerebral cortex and cerebellum were regionally dissected. Cerebellar samples were snap frozen in liquid nitrogen to assess compound exposure. Cortical samples for cFos assessment were placed in 500 μl of RNAlater solution (ThermoFisher) to preserve the integrity of RNA in the sample. Samples remained in RNAlater for at least 24 hours at 4° C. before moving to −80° C. for storage before processing.
Quantification of compound exposure. Cerebellar tissue samples were homogenized in 4 ml of 20% acetonitrile and 80% Phosphate buffered saline for every 1 g of tissue (5× dilution). Tissue was homogenized using either of the following three methods: hand held probe system, TissueLyser system with 5 mm steel bead at a frequency of 30 s^−1 for 4 min, or OMNI Bead Ruptor Elite homogenizer for 30 seconds to 1 minute depending on tissue type. Tissue samples were added to a 96-well plate (12.5 uL sample) and processed for quantification by mass spectrometry.

[2] = system: cFos mRNA; test: cFos mRNA induction in cortex of wild-type mice (PK-PD); format: in vivo, C57BL/6J male mice; details: one hour after administration
Experimental: Assessment of Compound Exposure—cFos Induction (PK-PD) Relationship in Wild-Type Mice
as §1
Quantification of cFos mRNA induction. Tissue homogenization was performed using TissueLyser system for 96 well plates (Qiagen). First, frozen cortical samples were thawed, removed from RNAlater, and placed into TissueLyser tubes along with Buffer RLT containing 0.5% Reagent DX and one 5 mm TissueLyser metal bead. The TissueLyser tubes were loaded into a TissueLyser II tissue homogenizer for 3 rounds of homogenization, with each round lasting 5 minutes at 30 Hz bead-beating frequency. Total RNA was purified from the homogenate using RNeasy 96 Plus kit (Qiagen), RNA concentration and A260/A280 ratio were quantified via the Nanodrop (ThermoFisher), and all samples were normalized to 100 ng/μL concentration. RNA was reverse transcribed into cDNA using the Superscript III First-strand synthesis SuperMix Kit (ThermoFisher). For each sample, 6 μL of RNA (600 ng total) was mixed with 1 μL of Oligo dT and 1 μl of annealing buffer and heated to 65° C. for 5 minutes. Next, 10 μL of 2× First-Strand Reaction Mix and 2 μl of the Enzyme mix were added to achieve a total reaction volume of 20 μL. The samples were heated to 50° C. for 50 minutes then 85° C. for 5 minutes to complete cDNA synthesis.
Quantitative PCR was performed on the cDNA samples using Quantitect Multiplex RT-PCR kit (Qiagen) in a 384-well assay format. Each PCR well contained 2 μl of cDNA (60 ng total), 10 μL of RT-PCR mastermix, 1 μL of cFos FAM Taqman probe (Mm00487425_m1 (FAM) #4351368), 1 μL of GAPDH VIC Taqman probe (Mm99999915-g1 (VIC) #4448486), 0.2 μl of Multiplex RT mix and 5.8 μl of RNase-free water. On the ViiA7 Real-Time PCR system (ThermoFisher), the samples were heated to 95° C. for 15 minutes then cycled between 94° C. for 45 seconds and 60° C. for 45 seconds for 45 cycles. cFos Ct values were exported, normalized to GAPDH Ct values, and converted to relative fold change in expression using the delta-delta Ct relative quantification method. cFos fold changes between compound treatments and vehicle were analyzed by one-way ANOVA, followed by Tukey's post-hoc comparisons.

Kp at 1 h [1] | Brain:blood ratio [1] | SMILES | %↑cFOS mRNA cortex (3 mg/kg ip) [2] | %↑cFOS mRNA cortex (10 mg/kg ip) [2]
2.9 |  | COC(=O)C1=C(CF)NC2=C(C(=O)OC2)[C@H]1c1cccc(F)c1[C@H]1CC1(F)F (single isomer, unassigned) [Example 1, methyl (R)-4-(2-((R or S)-2,2-difluorocyclopropyl)-3-fluorophenyl)-2-(fluoromethyl)-5-oxo-1,4,5,7-tetrahydrofuro[3,4-b]pyridine-3-carboxylate] | 254% | 
1.5 |  | COC(=O)C1=C(CF)NC2=C(C(=O)OC2)[C@H]1c1cccc(F)c1C1CC1 (single isomer, unassigned) [Example 2] | 378% | 
2.8 |  | COC(=O)C1=C(CF)NC2=C(C(=O)OC2)[C@H]1c1cc(F)cc(F)c1[C@H]1CC1(F)F (single isomer, unassigned) [Example 3, Methyl (R)-4-(2-((R or S)-2,2-difluorocyclopropyl)-3,5-difluorophenyl)-2-(fluoromethyl)-5-oxo-1,4,5,7-tetrahydrofuro[3,4-b]pyridine-3-carboxylate] | 204% | 
 | 1.4 | COC(=O)C1=C(CF)NC2=C(C(=O)OC2)[C@H]1c1cc(F)cc(F)c1[C@H]1CC1(F)F (single isomer, unassigned) [Example 4, Methyl (R)-4-(2-((R or S)-2,2-difluorocyclopropyl)-3,5-difluorophenyl)-2-(fluoromethyl)-5-oxo-1,4,5,7-tetrahydrofuro[3,4-b]pyridine-3-carboxylate] | 161% | 
3.3 |  | COC(=O)C1=C(CF)NC2=C(C(=O)OC2)[C@H]1c1cc(F)cc(F)c1[C@H](C)F (single isomer, unassigned) [Example 5, methyl (R)-4-(3,5-difluoro-2-((R or S)-1-fluoroethyl)phenyl)-2-(fluoromethyl)-5-oxo-1,4,5,7-tetrahydrofuro[3,4-b]pyridine-3-carboxylate] | 400% | 
1.5 |  | COC(=O)C1=C(CF)NC2=C(C(=O)OC2)[C@H]1c1cccc(F)c1[C@H](F)CF (single isomer, unassigned) [Example 6] | 199% | 
 |  | COC(=O)C1=C(CF)NC2=C(C(=O)CC2)[C@H]1c1cccc(F)c1[C@@H](F)CF (single isomer, unassigned) [Example 7, methyl (R)-4-(2-((R or S)-1,2-difluoroethyl)-3-fluorophenyl)-2-(fluoromethyl)-5-oxo-4,5,6,7-tetrahydro-1H-cyclopenta[b]pyridine-3-carboxylate] | 262% | 
3.5 |  | COC(=O)C1=C(CF)NC2=C(C(=O)OC2)[C@H]1c1cccc(F)c1[C@@H](C)F (single isomer, unassigned) [Example 8] | 496% | 
1.5 |  | COC(=O)C1=C(CF)NC2=C(C(=O)OC2)[C@H]1c1ccccc1OC(F)F (single isomer, unassigned) [Example 9] | 290% | 525%
0.9 |  | COC(=O)C1=C(CF)NC2=C(C(=O)OC2)[C@H]1c1cc(F)cc(F)c1C(F)(F)F (single isomer, unassigned) [Example 10] | 225% | 
1.1 |  | COC(=O)C1=C(CF)NC2=C(C(=O)OC2)[C@H]1c1cccc(F)c1CC(F)F (single isomer, unassigned) [Example 11] | 160% | 
3.5 |  | COC(=O)C1=C(CF)NC2=C(C(=O)OC2)[C@H]1c1cc(F)cc(F)c1C1CC1 (single isomer, unassigned) [Example 13] | 225% | 444%
1.7 |  | COC(=O)C1=C(CF)NC2=C(C(=O)OC2)[C@H]1c1cccc(F)c1C(F)F (single isomer, unassigned) [Example 15] | 176% | 294%
3.2 |  | COC(=O)C1=C(CF)NC2=C(C(=O)OC2)[C@H]1c1cc(F)cc(F)c1[C@H](F)CF (single isomer, unassigned) [Example 16, methyl (R)-4-(2-((R or S)-1,2-difluoroethyl)-3,5-difluorophenyl)-2-(fluoromethyl)-5-oxo-1,4,5,7-tetrahydrofuro[3,4-b]pyridine-3-carboxylate] | 234% | 
2.1 |  | COC(=O)C1=C(CF)NC2=C(C(=O)OC2)[C@H]1c1cccc(F)c1C(F)(F)F (single isomer, unassigned) [Example 17] | 201% | 
1 |  | COC(=O)C1=C(CF)NC2=C(C(=O)OC2)[C@H]1c1cc(F)cc(F)c1C(F)F (single isomer, unassigned) [Example 18] | 173% | 280%
1.2 |  | COC(=O)C1=C(CF)NC2=C(C(=O)OC2)[C@H]1c1cc(F)ccc1C(F)(F)F (single isomer, unassigned) [Example 23] | 365% | 
1.1 |  | COC(=O)C1=C(CF)NC2=C(C(=O)CC2)[C@H]1c1cccc(F)c1C1CC1 (single isomer, unassigned) [Example 28] | 293% | 

Source: US20250304594A1, “METHYL (R)-2-(FLUOROMETHYL)-5-OXO-4-PHENYL-4,5,6,7-TETRAHYDRO-1H-CYCLOPENTA[B]PYRIDINE-3-CARBOXYLATE AND METHYL (R)-2-(FLUOROMETHYL)-5-OXO-4-PHENYL-1,4,5,7-TETRAHYDROFURO[3,4-B]PYRIDINE-3-CARBOXYLATE AS Cav1,2 ACTIVATORS” (Novartis AG, priority 2020, published 2025)
